Here are results for 10 compounds from publication PMC4130196, “Angiotensin I-Converting Enzyme Inhibitor Derived from Cross-Linked Oyster Protein” (BioMed Research International, 2014).

The target in data set [1] is Angiotensin I-converting enzyme (UniProt P12822).
A short description of a further data set: in vitro. It is filed as cell-based. To be noted: human. On the procedure: The ACE inhibitory activities of the synthetic peptides were measured, and the cell toxicity was evaluated by cell viability testing on the hepatocyte cell line HepG2. HepG2 cells were cultured in MEM medium containing 10% fetal bovine serum. Ninety-six well plates containing 1 × 10^4 cells per well were incubated at 35°C for 24 h under 95% humidity and 5% CO2. After incubation, the synthetic peptides were added (final concentration, 200 μg/mL) and cells were incubated under the same conditions for an additional 24 h. Cell growth was assessed with the CellTiter 96 Aqueous One Solution Cell Proliferation Assay kit (Promega, Madison, WI, USA) and absorbance was determined with a microplate reader (Perkin Elmer 1420, VICTOR X Multilabel Plate readers, Waltham, MA, USA) at 490 nm. Cell viability was calculated as the percentage of absorbance of the synthetic peptide-treated groups compared with that of the untreated group (100% viability).

For data set [2], the system named is spontaneously hypertensive rats (SHR). Briefly: Antihypertensive activity in vivo: SBP of SHR by tail-cuff method after intragastric administration. Also noted: species or system rat. On the procedure:
Spontaneously hypertensive rats (SHR) with systolic blood pressure (SBP) between 170 and 190 mmHg and original strain Wistar Kyoto rats (WKR) with SBP between 100 and 125 mmHg were purchased from Harlan, USA (Indianapolis, USA). All rats were treated in accordance with Kyung Hee University guidelines for the care and use of laboratory animals. The animals were individually housed in stainless steel cages and adapted to 23 ± 1°C and humidity of 55 ± 5% under a 12 h light-dark cycle. The 12-week-old rats were fed a pelletized commercial chow diet for a period of 1 week after arrival and then randomly divided into five groups: untreated SHR control group (n = 3); normal WKR control group (n = 3); oyster hydrolysate-treated SHR group (100 mg/kg body weight, n = 3); sardine hydrolysate-treated SHR group (positive control, 100 mg/kg body weight, n = 3); and Captopril-treated SHR group (positive control, ACE inhibitor; 8 mg/kg body weight, n = 3). After intragastric administration of the samples using Sonde, SBP of the rats was measured by a Coda noninvasive blood pressure system (Kent Scientific Corporation, Baltimore, USA) using the tail-cuff method after prewarming for 30 min in an environmental chamber of 32°C at 0, 3, 6, 9, 12, and 24 h. Subsequent measurement of blood pressure was expressed as a percentage of that at the initial time.

Chain of UniProt P12822 (P12822 34-1260): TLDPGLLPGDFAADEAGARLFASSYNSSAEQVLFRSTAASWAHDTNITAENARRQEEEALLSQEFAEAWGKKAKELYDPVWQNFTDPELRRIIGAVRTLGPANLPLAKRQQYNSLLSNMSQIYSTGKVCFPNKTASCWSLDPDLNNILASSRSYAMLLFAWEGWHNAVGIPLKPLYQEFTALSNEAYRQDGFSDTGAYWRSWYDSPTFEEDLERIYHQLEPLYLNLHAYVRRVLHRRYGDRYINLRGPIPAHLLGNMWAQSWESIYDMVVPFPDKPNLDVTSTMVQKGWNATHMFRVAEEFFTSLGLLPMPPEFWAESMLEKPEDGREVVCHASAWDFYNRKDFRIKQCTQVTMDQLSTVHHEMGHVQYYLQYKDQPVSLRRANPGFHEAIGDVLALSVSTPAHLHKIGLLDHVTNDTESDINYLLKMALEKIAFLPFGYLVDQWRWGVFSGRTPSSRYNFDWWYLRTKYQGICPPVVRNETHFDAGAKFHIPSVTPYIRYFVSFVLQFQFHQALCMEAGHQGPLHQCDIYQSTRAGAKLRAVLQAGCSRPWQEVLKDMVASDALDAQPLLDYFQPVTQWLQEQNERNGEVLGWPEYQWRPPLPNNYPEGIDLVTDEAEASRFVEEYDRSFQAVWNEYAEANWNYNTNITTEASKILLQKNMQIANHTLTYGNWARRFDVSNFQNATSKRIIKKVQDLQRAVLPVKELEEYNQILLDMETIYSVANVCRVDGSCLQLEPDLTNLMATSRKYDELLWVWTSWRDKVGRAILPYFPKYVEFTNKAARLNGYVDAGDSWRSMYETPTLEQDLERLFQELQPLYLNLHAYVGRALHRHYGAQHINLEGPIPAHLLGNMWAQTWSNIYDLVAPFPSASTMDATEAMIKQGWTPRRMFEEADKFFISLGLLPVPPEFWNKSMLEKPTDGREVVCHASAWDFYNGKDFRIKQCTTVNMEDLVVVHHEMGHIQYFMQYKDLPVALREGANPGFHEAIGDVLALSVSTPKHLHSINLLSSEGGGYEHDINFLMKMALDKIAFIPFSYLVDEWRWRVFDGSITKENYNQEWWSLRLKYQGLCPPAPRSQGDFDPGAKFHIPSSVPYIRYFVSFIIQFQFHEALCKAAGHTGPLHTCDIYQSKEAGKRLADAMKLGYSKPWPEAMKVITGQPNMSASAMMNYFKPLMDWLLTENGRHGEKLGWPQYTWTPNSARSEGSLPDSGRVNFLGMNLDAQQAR

As for TAY (peptide), the IC50 of ACE inhibition (enzyme activity: hippuric acid released from HHL, by HPLC) in data set [1] came out at 16.7 µM. For FYN (peptide), the IC50 of ACE inhibition (enzyme activity: hippuric acid released from HHL, by HPLC) in data set [1] turned out to be 68.2 µM. Same read-out and setting: in the case of YA (peptide) it was 93.9 µM; in that of VK (peptide), 29 µM. Regarding `NCCCC[C@H](N)C(=O)N[C@@H](Cc1ccc(O)cc1)C(=O)O` [KY], the viability at 24 h, 200 μg/mL in the data set “in vitro” is 118 ± 7%. With `C[C@H](CS)C(=O)N1CCC[C@H]1C(=O)O` [Captopril], in data set [2] (8 mg/kg intragastric, 12 h after administration), the “SBP at maximum decrease, as % of the initial SBP” value worked out at 85.3 ± 4.5%. Moreover, in data set [2] (oral administration, oyster and sardine hydrolysate 100 mg/kg, Captopril 8 mg/kg), the “effect on SBP of SHR (in words)” value is listed as “not significant”. With KY (peptide), the IC50 of ACE inhibition (enzyme activity: hippuric acid released from HHL, by HPLC) in data set [1] is 51.5 µM.

Turning to `C[C@H](NC(=O)[C@@H](N)[C@@H](C)O)C(=O)N[C@@H](Cc1ccc(O)cc1)C(=O)O` [TAY], in “in vitro”, the viability at 24 h, 200 μg/mL was 105 ± 1.9%. For `CC(C)[C@H](N)C(=O)N[C@@H](CCCCN)C(=O)O` [VK], the viability at 24 h, 200 μg/mL in “in vitro” turned out to be 118 ± 15.1%. Regarding `NC(=O)C[C@H](NC(=O)[C@H](Cc1ccc(O)cc1)NC(=O)[C@@H](N)Cc1ccccc1)C(=O)O` [FYN], the viability at 24 h, 200 μg/mL in “in vitro” was found to be 110 ± 3%.

In general, viability refers to a read-out of living cells in per cent, often relative to untreated cells.
